Results taken from patent publication US11998602B2, “Methods for promoting myelination and for treating demyelinating diseases” (The Scripps Research Institute, priority 2018, dated 2024).

Tests used:
[1] = system: Rat primary optic nerve OPCs; test: In vitro OPC differentiation assay, MBP expression by Western blot; format: cell-based; conditions: for Effect of supplementation on drug-induced OPC differentiation: added to drug-induced differentiation conditions; for Observed maximal in vitro efficacy of OPC differentiation compared to T3: drug alone
Protocol: Rat primary optic nerve OPCs were isolated by panning (>99% A2B5^+) and cultured in poly-D-lysine (10 μg/ml)-coated TC dishes in OPC culture media (Neurobasal Media, Invitrogen) supplemented with B27-without vitamin A (Invitrogen), 1× non-essential amino acids, 1× Glutamax, 1× anti-anti, β-mercaptoethanol and PDGF-AA (50 ng/ml; Peprotech) at 37° C. with 5% CO2. The culture medium was replaced every 48 h and cells were collected before the confluency reached 60% to maintain a naive state. For differentiation, OPCs were plated at 1 million cells in one 10 cm petri-dish filled with differentiation media, which is identical to the culture media, but with PDGF-AA at 2 ng/ml. T3 and DMSO were used as the positive control and negative control, respectively. Five replicates of cells were collected at different times (0, 3, and 6 days) for metabolomics studies.
Western blot analysis. OPCs were plated in basal differentiation medium at 1.7×10^5 cells/well and treated for 6 days with benztropine (0.5 μM), miconazole (2 μM) with and without the tested endogenous metabolites, T3 (1 μM) or DMSO. After washing with PBS, cells were collected in ice cold RIPA buffer containing protease and phosphatase inhibitors. Following incubation on ice for >20 min and sonication, lysed cells were centrifuged (16,000 g, 15 min at 4° C.). Total protein was quantified using a BCA analysis and 25 μg of protein from each sample was denatured by boiling with Bolt LDS Sample Buffer (4×) and Sample Reducing Agent (10×). Proteins were electrophoresed using Bolt 4-12% Bis-Tris gels (Life Technologies) and transferred to a PVDF membrane (Bio-Rad). The membrane was blocked with Odyssey PBS Blocking Buffer (LI-COR) and incubated overnight at 4° C. with anti-MBP (mouse, 1:2000) and anti-actin (mouse, 1:5000). Blots were incubated with […] secondary donkey anti-mouse antibody (LI-COR, 1:7500) and imaged using Odyssey CLx and Image Studio (LI-COR).

[2] = system: Rat primary optic nerve OPCs; test: High content imaging assay of OPC differentiation (MBP, A2B5, DAPI cell counts); format: cell-based
Protocol: Rat primary optic nerve OPCs were isolated by panning (>99% A2B5^+) and cultured in poly-D-lysine (10 μg/ml)-coated TC dishes in OPC culture media (Neurobasal Media, Invitrogen) supplemented with B27-without vitamin A (Invitrogen), 1× non-essential amino acids, 1× Glutamax, 1× anti-anti, β-mercaptoethanol and PDGF-AA (50 ng/ml; Peprotech) at 37° C. with 5% CO2. The culture medium was replaced every 48 h and cells were collected before the confluency reached 60% to maintain a naive state. For differentiation, OPCs were plated at 1 million cells in one 10 cm petri-dish filled with differentiation media, which is identical to the culture media, but with PDGF-AA at 2 ng/ml. T3 and DMSO were used as the positive control and negative control, respectively. Five replicates of cells were collected at different times (0, 3, and 6 days) for metabolomics studies. High content imaging. For dose-response co-treatment experiments, black, clear-bottom 384-well plates (Greiner) were coated with poly-D-lysine (10 μg ml^−1 in PBS). miconazole and benztropine were added at 8 doses in differentiation media; 3-fold dilutions down from 10 μM. taurine was then added at 8 concentrations; 3-fold dilutions down from 20 mM. This 384-well format was also utilized for experiments combining benztropine (0.5 μM), miconazole (2 μM) or T3 (1 μM) with propargylglycine (0.1, 3, 10, 30 μM), reduced glutathione (1, 10, 30, 100 μM) or ascorbic acid ([…]). OPCs were then seeded at a density of 1,000 cells per well, and the plates were incubated at 37° C. with 5% CO2 for 6 days. For time course experiments, cells were seeded at a density of 5,000 cells per well in poly-D-lysine-coated 96-well plates. Cells were treated with DMSO (0.1%), benztropine (0.5 μM), miconazole (2 μM) or T3 (1 μM) on day 0, and taurine (20 mM) was added in combination at 0, 1 or 3 days post-drug treatment. The plates were incubated at 37° C. with 5% CO2 for 6 days. On day 6, cells were then fixed for 20 min with 4% formaldehyde solution and stained with mouse anti-Myelin Basic Protein (MBP) antibody (MAB382, Millipore) or anti-A2B5 antibody (MAB312, Millipore) in 3% BSA, 0.3% Triton X-100 with overnight incubation at 4° C. The cells were washed and incubated with secondary antibody (goat anti-mouse Alexa Fluor488) and DAPI (Invitrogen) for 1 h at room temperature. The cells were washed and plates were sealed and imaged using an Opera confocal imaging reader (Perkin Elmer) or a Cellomics Cell Insight imaging reader (Thermo). An air ×10 lens was used to capture 9 images per well at both wavelengths (488 and 365 nm), with each image representing a different unique locations field in a single well. For image analysis, DAPI-stained nuclei and MBP-positive or A2B5-positive cell bodies were detected using an algorithm that selects for positive cell bodies and nuclei within a range of fluorescent emission values and sizes as determined by fitting parameters to positive (T3, 1 μM) and negative controls (DMSO, 0.1%). The numbers of DAPI-positive objects were enumerated in experiments where cell counts were required. Numerical results from the analyzed images were later exported for analysis using Excel (Microsoft) and/or Genedata software.

[3] = system: primary mouse cortical neurons co-cultured with OPCs; test: In vitro OL maturation assay, MBP-colocalization with co-cultured axons; format: cell-based, rat; conditions: 0.5 μM benztropine, 1.0 μM miconazole or 2 mM taurine alone, 14 days
Protocol: In vitro OL maturation assay. Cortical and hippocampal tissue was dissected from C57BL/6 mice at embryonic day 14 and dissociated in 0.5% Trypsin with 100 U/mL DNase I diluted in HBSS (+/+) for 10 min at 37° C. Reaction was stopped by supplementing to a final concentration of 10% v/v FBS, 100 μg/mL Soybean Trypsin Inhibitor and 10 U/mL DNase I. Cells were resuspended in plating media consisting of equal volumes of FCS, HBSS (+/+), High-Glucose DMEM with L-glutamine, and F-12 with L-glutamine, then plated onto acid pre-washed German glass coverslips coated with 50 μg/mL Poly-D-Lysine and 20 μg/mL Laminin at a density of 50,000 cells/cm^2. Cells were allowed to attach for 2 hrs and then coverslips were rinsed with PBS before being transferred to a 24-well plate containing 0.5 mL growth media consisting of: Neurobasal medium, B27 supplement (Gibco), 0.5× Glutamax (Thermo), 5 μg/mL gentamycin and 5 μM glutamic acid. Half of the cell media was replaced after 3 DIV with supplemental growth media not containing glutamic acid^47. After 5 DIV, rat-derived cortical OPCs were added to the neuronal culture at a density of 5,000 cells/cm^2. Co-culture media used to resuspend and plate OPCs consisting of a 1:3 mixture of neuronal growth supplement (as above) and oligodendrocyte differentiation media, containing DMEM/F-12 (with L-glutamine), insulin-free N2 supplement, 1× Glutamax, 1×MEM non-essential amino acids, 1× β-mercaptoethanol, 2 ng/mL PDGF and 5 μg/mL gentamycin. All drugs and taurine co-treatment were added once to culture upon plating of OPCs at the following concentrations: 0.5 μM benztropine, 1.0 μM miconazole, each with or without 2 mM taurine. Cultures were maintained by replacing half of the media every three days, maintaining an equivalent concentration of taurine throughout in appropriate wells. […] Co-localization was quantified within regions of interest delineated as the periphery of individual oligodendrocytes. The co-localization index (adapted from a previously described method^48) was calculated as total proportion of co-localized 3D surface area between Tuj1 (neuron) and oligodendrocyte (MBP) over total Tuj1 (neuronal process) area enclosed within each oligodendrocyte process tree as the selected region of interest (ROI, see FIG. 3B″). Mean colocalization values for each condition were normalized to the DMSO condition mean analyzed statistically using Prism software (GraphPad, v7) for two-way ANOVA comparisons (Drug Treatment×Taurine Supplement) with Tukey post-tests for statistical significance. […]

OPCs = test: Mitochondrial respiration assay (oxygen consumption rate, XFe96 Seahorse); format: cell-based, rat; conditions: miconazole treatment alone
Protocol: Mitochondrial respiration assay. Cellular oxygen consumption rate (OCR) was measured using an XFe96 extracellular flux analyzer (Seahorse Biosciences). OPCs were seeded at 40,000 cells/well in PLP-coated XFe96 plates and cultured for 6 days with taurine (2 and 20 mM) alone, or together with miconazole and benztropine. Cells were then incubated in assay medium (DMEM with 20 mM glucose, 5 mM pyruvate and 5 mM sodium bicarbonate, pH˜7.4) for at least 30 min prior to the assay. Media to deliver a final assay well concentration corresponding to of 1 μM oligomycin, 2 μM carbonyl cyanide 4-(trifluoromethoxy) phenylhydrazone (FCCP) and 2 μM rotenone+2 μM antimycin A were pre-loaded into the compound delivery ports of the system. The assay starts with the recording of the basal OCR, followed by recording of the OCR in response to different compounds that constitute the Mitochondria Stress Test (Seahorse Biosciences, Agilent). Once the basal OCR was measured, the compounds were added sequentially and the effects on OCR measured 3 times every 5 min. Oligomycin blocks ATP synthase; FCCP dissipates the inner membrane potential enabling maximum electron flux through the electron transport chain (ETC); rotenone+antimycin A inhibit complexes I and III, respectively, thereby blocking the entry of electrons in the ETC and shutting down mitochondrial activity.

## CN(CC(=O)O)C(=N)NP(=O)(O)O [PCr, phosphocreatine]
[1]
  Effect of supplementation on drug-induced OPC differentiation: some additive effects

## C#CCC(N)C(=O)O (stereo not shown) [PPG, propargylglycine]
[2]; PPG
  Impact on differentiation efficiency under basal vehicle treated conditions: virtually no impact
[2]; PPG 10 μM added at day 0 or day 3, all drug-induced conditions
  Observed efficacy of drug-induced differentiation: significantly enhance
[2]; PPG 10 μM, T3 1 μM
  Overall cell number with T3 treatment: enhance
[2]; PPG, DMSO, benztropine (0.5 μM) or miconazole (2 μM)
  Impact on overall survival in OPC cultures: not found to impact

## CN1[C@@H]2CC[C@H]1C[C@@H](OC(c1ccccc1)c1ccccc1)C2 [benztropine, reference compound]
[1]
  Observed maximal in vitro efficacy of OPC differentiation compared to T3: suboptimal
[3]
  MBP-colocalization with axons, treatment alone vs. DMSO (Tukey post hoc): significant

## CN(CC(=O)O)C(=N)N [creatine]
[1]
  Effect of supplementation on drug-induced OPC differentiation: some additive effects

## Clc1ccc(COC(Cn2ccnc2)c2ccc(Cl)cc2Cl)c(Cl)c1 (stereo not shown) [miconazole, reference compound]
[1]
  Observed maximal in vitro efficacy of OPC differentiation compared to T3: suboptimal
OPCs
  Impact on OCR values compared to DMSO or benztropine treatment: negative impact
[3]
  MBP-colocalization with axons, treatment alone vs. DMSO (Tukey post hoc): no significant difference

## reduced glutathione
[2]; 10 μM GSH, DMSO, day 6
  Differentiation efficiency (MBP-positive OLs) under basal conditions: no significant effect
[2]; 10 μM GSH, T3 (1 μM), day 6
  Observed total nuclei count in T3-induced differentiation: significantly enhance
  Overall efficiency of T3-induced differentiation: significantly enhance
[2]; reduced glutathione
  Impact on total cell number in benztropine- or miconazole-induced differentiation: not found to be significant
[2]; reduced glutathione, lesser extent than following taurine addition
  Overall efficiency of benztropine- or miconazole-induced differentiation: enhance
